Experimental data reported in patent US20130084328A1, “METHYLATED CODING AND NON-CODING RNA GENES AS DIAGNOSTIC AND THERAPEUTIC TOOLS FOR HUMAN MELANOMA” (Sanford-Burnham Medical Research Institute, priority 2011, published 2013).

System: miR-124-3a and miR-let-7i
Assay: expression and bisulfite methylation of miR-124-3a and miR-let-7i after 5-Aza-dC
Type: cell-based, human
Conditions: melanoma cells
Description: PCR was performed using a 6-minute hot-start at 95° C., followed by 35 cycles at 94° C. for 20 s, 54° C. for 25 s, and 72° C. for 30 s, ending with a 10-min extension at 72° C. using AmpliTaq Gold (Applied Biosystems/Life Technologies). PCR products were gel purified using the QiaQuick gel extraction kit (QIAGEN) and cloned into the pCR4-TOPO vector (Invitrogen/Life Technologies). Nine clones for each miRNA candidate and 6 clones for each patient sample were sequenced using M13 primers and the BigDye terminator kit v1.1 (Applied Biosystems/Life Technologies), analyzed on a 3130×1 Genetic Analyzer (Applied Biosystems/Life Technologies), and aligned using Vector NTi AlignX (Invitrogen/Life Technologies).

With Nc1ncn([C@H]2C[C@H](O)[C@@H](CO)O2)c(=O)n1 [5AzadC, 5-aza-2′-deoxycytidine] the “expression and methylation levels of miR-124-3a and miR-let-7i” value was “not affected”.
